Tests used:
[1] = system: rat cerebellar granule cells; experiment: Glutamate-induced neurotoxicity in primary cerebellar granule cells; format: cell-based; settings: 0.1 to 10 ng/ml; glutamate 50 μM
Method: Activation of glutamate ionotropic receptors represents the primary event in the neurotoxicity process triggered by excitatory amino acids. Primary cultures of new born rat cerebella neurons (which contain >97% neurons) were employed for studying the effects of the IL6 chimera on glutamate-induced neurotoxicity and compared to the effects of IL-6.
Primary cultures of cerebellar granule cells were prepared from 8 day-old Sprague-Dawley rat pups as previously described (Pizzi et al. 1993). Cells were plated onto poly-L-Lysine-coated dishes and cultured in basal Eagle's medium containing 10% heat-inactivated foetal bovine serum, glutamine (2 mM), gentamicin (50 μg/ml), and KCl (25 mM), at a density of 2.5×10^5 cells/cm^2. Cytosine Arabinoside (10 μM) was added to the cultures 18 h after seeding to prevent non neuronal cell proliferation. Experiments were carried out after culturing the neurons for 10 days.
Unless otherwise indicated, cultures were exposed for 15 min to 50 μM glutamate in a Mg^2+-free Locke's solution. IL6 or the IL6 chimera were added 5 min before glutamate treatment. Dishes were then returned to cultured conditioned medium at 37° C. in 95% air/5% CO2 and cell viability was measured 18–24 hours later.
Cell viability was evaluated 18 h later by intravital staining with fluorescein diaceate and propidium iodide mixture, as previously described (Pizzi et al. 1993). […]

[2] = system: hippocampal organotypic slices; experiment: NMDA-induced cell death in hippocampal organotypic slices, propidium iodide; format: cell-based, rat; settings: 0.1 ng/ml
Method: The cultures were prepared as previously described by Bahr et al. (Bahr 1995) with minor modifications. Hippocampi were dissected out from eight day old Wistar rats and 400 μm thick slices were laid down on a porous and transparent Millicell-CM membrane (Millipore) and cultured in 6 wells multiwell plates. Four slices were placed on each membrane. Culture medium consisted of 50% minimal essential medium (+25 mM HEPES, +4 mM NaHCO3+NaOH pH 7.2), 25% horse serum and 25% Hanks' solution, glucose (6.4 g/l), penicillin/streptomycin (10 ml/l), L-glutamine (2 mM). Cultures were kept in a 5% CO2 incubator set at a temperature of 37° C. for at least 3 weeks before being used. Medium was changed every week.
Hippocampal slices were exposed to IL6 or to the IL6 chimera at concentrations ranging […] for 15 min, thereafter NMDA 50 μM was added for additional 30 min. […] NMDA-induced cell death was evaluated either 1 or 3–7 days after the experimental injury by incubating cultures for 1 hour in fresh medium containing propidium iodide (PI 5 μl/ml). […] The emitted red fluorescence (marker of cell death) was examined using an inverted fluorescence microscope (Zeiss) associated with an intensified charged-coupled device camera. Quantification of total fluorescence was performed by an image analysis system (Image Pro Plus).

[3] = system: Rat sciatic nerve Schwann cell lines cells with murine DRG neurons; experiment: Co-culture of DRG neuronal cells with fluorogold-labeled Schwann cells; format: cell-based
Text: By culturing murine DRG in the presence of DNA synthesis inhibitors arabinoseC (AraC) and fluorodeoxyuridine (FudR), neuronal cells can develop axons while glial cell proliferation is inhibited. These DRG cultures can be used as a source of neuronal cells with non-myelinated axons. Schwann cells are exogenously added to these cultures to study the interaction between neurons and Schwann cells.
Rat sciatic nerve Schwann cell lines cells were labeled with fluorogold, a label that penetrates the cell membrane lipid bi-layer and is maintained for an extensive period of time without affecting cell function. […] This system allows to study the various steps in the myelination process which are affected by the IL-6 chimera.

[4] = system: dorsal root ganglia (DRG) explants, embryonic Schwann cells; experiment: Embryonic dorsal root ganglia (DRG) explant cultures: microscopy, scanning EM, anti-MBP staining; format: cell-based, mouse; settings: IL6RIL6 3 μg/ml, NGF 40 ng/ml
Method: In the spinal cord, the dorsal root comprises essentially sensory neurons, which form synapses in the dorsal root ganglia (DRG). During mouse embryogenesis (at day e14–e15), DRGs are a convenient source of neurons and of embryonic Schwann cells which have not yet differentiated into myelinating SC. Procedures to obtain explants of DRGs for in vitro cultures are described by Li (1998). The cultures were performed on glass coverslips placed in the wells of Costar plates, in medium F12/DMEM (Gibco). The coverslips were coated either with collagen or with poly-D-lysine, with essentially similar results. Cultures were either done in medium without growth factor or cytokine additions or in medium supplemented with nerve growth factor (NGF, 40 ng/ml), or in medium supplemented with IL6RIL6 chimeric recombinant proteins (3 μg/ml). The cultures were examined daily by light microscopy with an Olympus inverted microscope linked to a video-camera imaging system (Leica LIDA system). Part of the coverslips were fixed in paraformaldehyde and MBP proteins were labeled with monoclonal primary antibodies to myelin basic proteins and fluorescein-conjugated secondary antibody. Neuronal cell bodies and axons were stained with antibodies to neurofilament protein. Some of the coverslips were examined by scanning electron microscopy (EM).

Substance	protection from glutamate-induced neurotoxicity [1]	neuronal cells protected from NMDA-induced cell death ([2]; after one day, NMDA 50 μM)	cells protected from NMDA-induced cell death ([2]; day 5) [%]	sheath formation around the axons ([3]; after a few days)	binding of the Schwann cells along the axons ([3]; within 5 hours)	Staining with anti-MBP [4]	Schwann cells along axons in DRG explant cultures ([4]; after 2 to 5 days)
IL-6: Interleukin-6, cytokine used as comparator	no protective effect	approximately 50%	30	–	–	–	–
NGF: nerve growth factor	–	–	–	do not form a sheath	bind much less	little MBP-specific fluorescence	no Schwann cells were observed along the axons

From patent publication US7201896B1, “IL6RIL6 chimera for the treatment of neurodegenerative diseases” (Yeda Research and Development Company Ltd., priority 1999, dated 2007)
